Source: patent US5006517A, “Treatment of Prader-Willi syndrome” (Progenics, Inc., priority 1989, dated 1991)
Read-outs that look alike come from different tables or passages of the source.

How the values were obtained:
[1] = in diet, diabetic, genetically obese mice; cited from earlier work
[2] = C57BL/KsJ-db/db mice; cited from earlier work
[3] = Interconversion, absorption and circulation of alpha-ET, beta-ET and ET-dione; settings: for oxidation at the C-3 position to ET-dione: orally or parenterally (i.p., i.m. or i.v.)
Description: This is the subject of U.S. application Ser. No. 078,610, filed July 28, 1987 and incorporated herein by reference.

[4] = normal individuals, endogenous metabolite of DHEA; cited from earlier work
[5] = Free alpha-ET blood levels after oral suspensions in eight normal human volunteers (crossover, RIA)
Description: Each subject received all three drugs in randomized order with a one-week wash-out period between doses. Following an overnight fast, subjects received 200 mg of test drug suspended in approximately 6 oz. of apple juice. Blood samples were drawn immediately prior to drug administration and at 15 minutes, 30 minutes, 1, 2, 4, 8, 12 and 24 hours.

[6] = oral, severely diabetic mammals; cited from earlier work
[7] = genetically obese or diabetic mice; cited from earlier work
[8] = genetically obese mice, variety of routes; cited from earlier work
[9] = A^vy /A mice, 0.4% ET-dione
Description: Inhibition of the development of obesity was studied in two mutant mouse strains used for diabetes evaluation: C57BL/6, C3HeB/FeJ (A^vy /A). […] C57BL/6 mice (Jackson Laboratories, Bar Harbor, ME) display the genetic obesity syndrome markers obese (ob) and diabetes (db) A^vy /A mice (Jackson Laboratories, Bar Harbor, ME) are characterized by mild obesity and an enhanced susceptibility to certain tumors.
days during week 4 and were then returned to the 0.4% dose level.

[10] = Body weight in C57BL/K db/db diabetic mice on ET-dione chow; assay type: in vivo, mouse (C57BL/K db/db); settings: for 6 wk gain: 6 weeks
Description: (§1) Eighteen C57BL/K db/db mice were divided into three groups of 5 and one group (control) of 3. This mouse strain is more diabetic and more resistant to weight gain reduction than the mouse species used in Example 1. The mice were weighed and then permitted to consume a commercially-available chow and water ad librium over a six-week study period. At the end of each week, the mice were reweighed and their blood sugar determined. The chow supplied to three of the groups had ET-dione admixed therewith at either a 0.4, 0.6 or 0 8% concentration.

[11] = Blood sugar in C57BL/K db/db diabetic mice on ET-dione chow; assay type: in vivo, mouse (C57BL/K db/db); set-up: Blood Sugar: unit not given here
Description: as §1

[12] = not given; remark: listed apart in the source
[13] = rat, before feeding program
Description: Food consumption and body weight were measured weekly. […] Liver weight (absolute and % of body weight), total cholesterol, % of esterified cholesterol and triglycerides in the liver were also determined. In addition, epididymal fat pad weights were measured.

Compound: C[C@]12CC[C@@H](O)C[C@H]1CC[C@@H]1[C@@H]2CC[C@]2(C)C(=O)CC[C@@H]12 [Alpha-ET, 5-beta-androstan-3-alpha-ol-17-one]
- anti-obesity properties [1]: effective both in preventing and in arresting the development of obesity
- Blood Sugar [2]: reduced blood sugar
- effectiveness vs DHEA in preventing the development of diabetes [2]: four time more effective than DHEA
- plasma insulin concentrations [2]: increased plasma insulin concentrations
- protective effect on the pancreas (granules in islet beta cells) [2]: protective effect on the pancreas
- oxidation at the C-3 position to ET-dione [3]: rapidly oxidized at the C-3 position to ET-dione
- urinary excretion [4]: 3-5 mg per day
- levels of conjugated alpha-ET relative to free alpha-ET ([5]; 30 minutes post-administration): 2-5 times
- % W vs Control Day 28 (0.2% in diet, day 28): -9.8%

Compound: C[C@]12CC[C@H](O)C[C@H]1CC[C@@H]1[C@@H]2CC[C@]2(C)C(=O)CC[C@@H]12 [Beta-ET, 5-beta-androstan-3-beta-ol-17-one]
- anti-obesity properties [1]: effective both in preventing and in arresting the development of obesity
- Blood Sugar [2]: reduced blood sugar
- effectiveness vs DHEA in preventing the development of diabetes [2]: four time more effective than DHEA
- plasma insulin concentrations [2]: increased plasma insulin concentrations
- protective effect on the pancreas (granules in islet beta cells) [2]: protective effect on the pancreas
- oxidation at the C-3 position to ET-dione [3]: rapidly oxidized at the C-3 position to ET-dione

Compound: C[C@]12CC[C@H](O)CC1=CC[C@@H]1[C@@H]2CC[C@]2(C)C(=O)CC[C@@H]12 [DHEA, 3-beta-hydroxyandrost-5-en-17-one]
- glucose tolerance [6]: improved glucose tolerance
- hyperglycemia [6]: restored hyperglycemia to normal levels
- preventive effect on the development of diabetes [7]: marked preventive effect on the development of diabetes
- rate of weight gain [8]: decreased the rate of weight gain

Compound: C[C@]12CCC(=O)C[C@H]1CC[C@@H]1[C@@H]2CC[C@]2(C)C(=O)CC[C@@H]12 [ET-dione, 5-beta-androstanedione]
- effectiveness vs 0.1% alpha- and beta-ET, in words [9]: comparable in effectiveness to 0.1% alpha- and beta-ET
- 6 wk gain ([10]; 0.4% ET-dione in chow): 26.1 g
- Body Weight ([10]; 0.4% ET-dione in chow, start): 19.6 ± 1.8 g
- Body Weight ([10]; 0.4% ET-dione in chow, week 1): 26.7 ± 1.7 g
- Body Weight ([10]; 0.4% ET-dione in chow, week 2): 29.8 ± 1.2 g
- Body Weight ([10]; 0.4% ET-dione in chow, week 3): 34.4 ± 0.83 g
- Body Weight ([10]; 0.4% ET-dione in chow, week 4): 36.5 ± 0.8 g
- Body Weight ([10]; 0.4% ET-dione in chow, week 5): 42.2 ± 1.0 g
- Body Weight ([10]; 0.4% ET-dione in chow, week 6): 45.7 ± 0.7 g
- 6 wk gain ([10]; 0.6% ET-dione in chow): 24.1 g
- Body Weight ([10]; 0.6% ET-dione in chow, start): 18.1 ± 1.6 g
- Body Weight ([10]; 0.6% ET-dione in chow, week 1): 23.7 ± 1.9 g
- Body Weight ([10]; 0.6% ET-dione in chow, week 2): 27.3 ± 1.8 g
- Body Weight ([10]; 0.6% ET-dione in chow, week 3): 31.9 ± 1.9 g
- Body Weight ([10]; 0.6% ET-dione in chow, week 4): 34.7 ± 1.9 g
- Body Weight ([10]; 0.6% ET-dione in chow, week 5): 39.1 ± 1.6 g
- Body Weight ([10]; 0.6% ET-dione in chow, week 6): 42.2 ± 0.9 g
- 6 wk gain ([10]; 0.8% ET-dione in chow): 21.7 g
- Body Weight ([10]; 0.8% ET-dione in chow, start): 18.1 ± 1.0 g
- Body Weight ([10]; 0.8% ET-dione in chow, week 1): 23.3 ± 0.7 g
- Body Weight ([10]; 0.8% ET-dione in chow, week 2): 26.4 ± 0.6 g
- Body Weight ([10]; 0.8% ET-dione in chow, week 3): 31.1 ± 0.76 g
- Body Weight ([10]; 0.8% ET-dione in chow, week 4): 33.5 ± 0.91 g
- Body Weight ([10]; 0.8% ET-dione in chow, week 5): 37.0 ± 0.9 g
- Body Weight ([10]; 0.8% ET-dione in chow, week 6): 39.8 ± 1.2 g
- six-week weight gain, in words ([10]; ET-dione in chow, 0.4-0.8%): reduced the six-week weight gain
- Blood Sugar ([11]; 0.4% ET-dione in chow, week 1): 149 ± 3.9
- Blood Sugar ([11]; 0.4% ET-dione in chow, week 2): 156 ± 8.3
- Blood Sugar ([11]; 0.4% ET-dione in chow, week 3): 151 ± 6.3
- Blood Sugar ([11]; 0.4% ET-dione in chow, week 4): 148 ± 5.6
- Blood Sugar ([11]; 0.4% ET-dione in chow, week 5): 148 ± 17.2
- Blood Sugar ([11]; 0.4% ET-dione in chow, week 6): 168 ± 24.5
- Blood Sugar ([11]; 0.6% ET-dione in chow, week 1): 143 ± 9.0
- Blood Sugar ([11]; 0.6% ET-dione in chow, week 2): 124 ± 10.7
- Blood Sugar ([11]; 0.6% ET-dione in chow, week 3): 151 ± 11.5
- Blood Sugar ([11]; 0.6% ET-dione in chow, week 4): 152 ± 3.7
- Blood Sugar ([11]; 0.6% ET-dione in chow, week 5): 159 ± 17
- Blood Sugar ([11]; 0.6% ET-dione in chow, week 6): 195 ± 37
- Blood Sugar ([11]; 0.8% ET-dione in chow, week 1): 128 ± 5.0
- Blood Sugar ([11]; 0.8% ET-dione in chow, week 2): 126 ± 6.8
- Blood Sugar ([11]; 0.8% ET-dione in chow, week 3): 147 ± 4.2
- Blood Sugar ([11]; 0.8% ET-dione in chow, week 4): 148 ± 3.7
- Blood Sugar ([11]; 0.8% ET-dione in chow, week 5): 137 ± 6.7
- Blood Sugar ([11]; 0.8% ET-dione in chow, week 6): 184 ± 31
- blood sugar level vs untreated mice, in words ([11]; ET-dione in chow, 0.4-0.8%): roughly half that of the untreated mice
- blood levels of free alpha-ET ([3]; animal and human pharmacokinetic data): increased blood levels of free alpha-ET
- Food consumption, Av. Wks 1-4 ([12]; 0.4% in diet, average weeks 1-4): 22.0 g/day
- effectiveness in reducing food consumption relative to alpha-ET ([12]; second rat study): equally effective as alpha-ET in reducing food consumption
- blood levels of alpha-ET over equivalent dosages of alpha-ET [5]: significantly enhanced blood levels of alpha-ET
- amounts of alpha-ET in blood, in words ([5]; 15 minutes to approximately 1 hour after administration): significantly higher amounts of alpha-ET
- free alpha-ET levels, in words, vs alpha-ET or beta-ET administration ([5]; four hours post-administration): significantly higher than from alpha-ET or beta-ET administration
- effectiveness on weight gain relative to alpha-ET (all concentrations tested): almost twice as effective as alpha-ET
- effectiveness relative to alpha-ET (general statement) (rat, in vivo): equally or, in some cases, almost twice as effective
- RIA value for alpha-ET, initial [13]: approximately 40 nanograms per deciliter

Compound: C[C@]12CC[C@@H](O)C[C@@H]1CC[C@@H]1[C@@H]2CC[C@]2(C)C(=O)CC[C@@H]12 [androsterone, reference compound]
- effectiveness vs DHEA in preventing the development of diabetes [2]: not

Compound: C[C@]12CC[C@H](O)C[C@@H]1CC[C@@H]1[C@@H]2CC[C@]2(C)C(=O)CC[C@@H]12 [epiandrosterone, reference compound]
- effectiveness vs DHEA in preventing the development of diabetes [2]: not
